Reference: article PMC6584941 (Cancer Letters, 2019)
Numbering of substitutions follows the chain as printed. Square brackets hold non-standard residues; d marks the D form. Ends that are not written are not given here. pY = N[C@@H](Cc1ccc(OP(=O)(O)O)cc1)C(=O)O

Key:
[1] = biological target: T1, Shc (PTB domain, Shc^PTB R175Q) (Homo sapiens, UniProt P29353, R285Q); experiment: MST with Atto488-labelled Shc^PTB R175Q; type: binding
T1 sequence (P29353 156-339 R285Q limits assumed): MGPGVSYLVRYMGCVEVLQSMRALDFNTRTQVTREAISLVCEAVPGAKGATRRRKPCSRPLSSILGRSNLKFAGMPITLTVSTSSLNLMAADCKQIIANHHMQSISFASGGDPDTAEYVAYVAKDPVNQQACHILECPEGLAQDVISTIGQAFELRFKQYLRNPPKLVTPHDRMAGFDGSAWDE

[2] = biological target: T2, Shc (PTB domain, Shc^PTB) (Homo sapiens, UniProt P29353); experiment: ITC; type: binding
T2 sequence (P29353 156-339 limits assumed): T1 sequence (P29353 156-339 R285Q limits assumed) with Q130R

[3] = biological target: T3, Shc phosphotyrosine binding (PTB) domain (UniProt P29353-2 17-207, Atto488 label, 1:1 protein:dye (in the MST only)); experiment: MST
T3 sequence: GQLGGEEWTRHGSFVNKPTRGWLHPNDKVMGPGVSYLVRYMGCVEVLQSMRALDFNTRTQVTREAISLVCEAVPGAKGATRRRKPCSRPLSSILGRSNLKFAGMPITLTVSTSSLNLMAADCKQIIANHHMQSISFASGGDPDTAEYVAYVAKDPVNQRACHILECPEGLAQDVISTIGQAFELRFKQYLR

## COc1ccc2c(c1)c(CC(=O)O)c(C)n2C(=O)c1ccc(Cl)cc1 [indomethacin]
[1]
  Kd: 590 ± 54 µM
[2]
  Kd: 38.2 ± 7.2 µM

B1: ErbB2 pY1122 peptide (peptide)
peptide: SPAFDNLY[pY]WDQ
[3]
  Kd: 0.261 µM
